Assay results reported in US20120058133A1, “INHIBITION OF TRNA SYNTHETASES AND THERAPEUTIC APPLICATIONS THEREOF” (President and Fellows of Harvard College, priority 2009, published 2012).
Read-outs that look alike come from different tables or passages of the source.

Key:
[1] = test system: murine CD4+ CD25− T cells; assay: Th17 differentiation of activated CD4+ CD25− T cells (TGFβ plus IL-6; IL-17+ IFNγ− cells); type: cell-based, mouse; details: for rescue of HF-inhibited Th17 differentiation by added amino acids: 1 mM amino acids; for IC50: Mus musculus, T-cell
Experimental: (§1) Purified CD4^+ CD25^− T cells were activated in vitro as previously described (Djuretic et al., Nat. Immunol. 8:145, 2007) using 0.3 μg/ml hamster anti-mouse CD3 (clone 145-2C11) (ATCC—Manassas, Va.) and 0.5 μg/ml hamster anti-mouse CD28 (BD Pharmingen—San Jose, Calif.). Activated cell cultures were differentiated using the following combinations of cytokines and antibodies: iTreg-recombinant human TGFβ1 (3 ng/ml—R&D systems, Minneapolis, Minn.), Th17-TGFβ1 (3 ng/ml) plus recombinant mouse IL-6 (30 ng/ml—R&D systems). Th1 and Th2 differentiation was performed as previously described (Djuretic et al., Nat. Immunol. 8:145, 2007). Human IL-2 supernatant (National Cancer Institute) was used in culture at 0.01 U/ml and was added at 48 hours-post activation when T cells were split into tissue culture wells lacking CD3 and CD28 antibodies, with the exception of Th17 cultures that were maintained in the absence of exogenous IL-2. CD8^+ T cells were activated with 1 μg/ml anti-CD3 and 1 μg/ml anti-CD28 and were expanded in 0.1 U/ml IL-2 until day 6 post activation. CD43-depleted B cells were activated in vitro by culturing with 25 μg/ml LPS (Sigma—St. Louis, Mo.) for 3-4 days in the presence or absence of TGFβ. All reagents (see below) were added at the time of T cell activation and again at 48 hours post activation unless indicated otherwise. For some experiments, purified CD4^+ CD25^− T cells, CD8^+ T cells or B cells were labeled with 1 μM CFSE (Invitrogen) prior to activation in accordance with manufacturer's instructions. Human T cell activation was performed by plating purified monocytes in a 96-well flat bottom plate at a concentration of 2×10^4 cells per well in complete medium overnight. 10^5 purified human memory T cells were added to monocyte cultures in the presence of soluble anti-CD3/anti-CD28 beads (Dynabeads, Invitrogen). T cells were expanded in the presence HF or MAZ1310 for up to 6 days.
MAZ1310 (Kamberov, Ph.D. Dissertation, Harvard University, 2008) was generated by chemical derivatization of halofuginone and was used at equal concentrations as a negative control. HF and MAZ1310 were prepared as 100 mM stock solutions in DMSO and diluted to the indicated concentrations. SB-431542 (Inman et al., Mol. Pharmacol. 62:65, 2002) (Tocris bioscience—Ellisville, Mo.) was prepared as a 10 mM stock solution in DMSO and was used in culture at 10 μM. L-tryptophanol was prepared as a 20 mM stock solution in 0.1 M NaOH, pH 7.4 and was used at 0.2 mM. For amino acid starvation experiments, T cells were activated and differentiated as above in D-MEM medium without L-cysteine and L-methionine (Invitrogen—Carlsbad, Calif.), or D-MEM medium without L-leucine. Stocks containing 20 mM L-cysteine (Sigma—St. Louis, Mo.) plus 10 mM L-methionine (Sigma), or 400 mM L-leucine (Sigma) were prepared in ddH2O, pH 1.0 and were added to medium at the indicated concentrations.
(§2) For detection of intracellular cytokines in murine cells, cultured T or B cells were stimulated with 10 nM PMA (Sigma) and […] (Sigma) for 4-5 hours in the presence of 10 mM brefeldin A (Sigma). Stimulated cells were harvested, washed with PBS and fixed with PBS plus 4% paraformaldehyde at room temperature for 20 minutes. Cells were then washed with PBS, permeabilized with PBS supplemented with 1% BSA and 0.5% saponin (Sigma) at room temperature for 10 minutes before cytokine-specific antibodies were added and incubated with cells for an additional 20 minutes at room temperature.

[2] = test system: murine CD4+ CD25− T cells, CD8+ T cells, B cells; assay: T and B cell activation, proliferation, cytokine production and Th1/Th2/iTreg differentiation; type: cell-based, mouse
Experimental: FIG. 2A, Left, is a graph showing dose response analyses performed on activated carboxyfluorescein succinimidyl ester (CFSE)-labeled CD4^+CD25^− T cells in the presence of DMSO, 40 nM MAZ1310, or increasing concentrations of halofuginone (HF) (1.25-40 nM). CFSE dilution and cell surface CD25 expression were determined 48 hours after activation. Intracellular cytokine production was determined on day 4 or 5 following restimulation with phorbol myristate acetate (PMA) and ionomycin. […] FIG. 2A, Right is a graph showing dose-response analyses of HF effects on CD8^+ T cell or B cell function. Cells were activated in the presence of DMSO, 40 nM MAZ1310, or increasing concentrations of HF (1.25-40 nM). CFSE dilution, cell surface CD25 expression, and intracellular cytokine production were determined as above 2-5 days after activation.
At approximately 10-fold higher concentrations (>20 nM), HF induced a general inhibition of T and B cell activation, proliferation, and effector function (FIG. 2A, 2B).
as §1
Cytokines secreted into media supernatant were measured using the mouse Th1/Th2 cytometric bead array (CBA—BD Pharmingen) in accordance with manufacturers instructions. Briefly, CD4+ CD25− T cells were activated in anti-CD3/anti-CD28-coated tissue culture wells (see above) and supernatants were collected at the indicated times.
as §2, with “temperature. […]” for “temperature.”

[3] = low concentrations of HF (1-10 nM)
[4] = low concentrations of tunicamycin

## O=C(CC1NCCCC1O)Cn1cnc2cc(Br)c(Cl)cc2c1=O (racemic) [HF, halofuginone]
[1]
  IL-17 expression with IFNγ and IL-4 blocked by neutralizing antibodies: reduced IL-17 expression
  Th17 differentiation in T cells transduced with RORγt-expressing vs empty retroviruses: inhibited Th17 differentiation as effectively
[1]; 5 nM, 10 nM HF
  IL-17 expression in cells with equivalent number of cell divisions (CFSE dilution): inhibited IL-17 expression in a dose-dependent manner
[1]; 10 nM HF
  IL-17 expression in T cells lacking Foxp3: strongly repressed IL-17 expression
  Th17 differentiation of T cells expressing STAT3C: remained capable of differentiating into Th17 cells
  upregulation of RORγt or RORα during Th17 differentiation: did not interfere
  rescue of HF-inhibited Th17 differentiation by added amino acids: only proline rescued Th17 differentiation
[1]; 10 nM HF added at times after activation
  time of HF addition for inhibition of IL-17 expression: most pronounced when HF was added during a 12-hour window at the start of the culture period
[1]; 10 nM HF, listed as halofuginone
  rescue of HF-inhibited Th17 differentiation by added amino acids: Proline, and no other added amino acid, rescues the inhibition of Th17 differentiation
[1]; 10 nM HF, day 3
  Foxp3 expression in T cells differentiated with TGFβ plus IL-6: enhanced Foxp3 expression
[1]; 10 nM, 4 days, Th17 conditions
  expression of IL-17 and IL-17f mRNA: impaired
[1]; 96 h, restimulation on day 4-5, read-out: IC50 for Th17 differentiation (percentage of IL-17+ IFNγ− cells)
  IC50: 3.6 nM
[1]; read-out: concentration giving 50% inhibition of Th17 cell development
  IC50: ~3 nM
[1]; TAT-Cre treated, TGFβ plus IL-6
  Th17 differentiation of cells expressing YFP or no transgene: strongly impaired Th17 differentiation
[1]; [3]
  IL-17 production: strongly reduced
[2]
  concentration inducing general inhibition of T and B cell activation, proliferation, and effector function: > 20 nM
[2]; [3]
  CD25 upregulation: did not affect
  T cell proliferation: did not affect
  production of IL-2, TNF, or IFNγ: did not affect
[2]; low-dose HF
  Th1, Th2 or iTreg differentiation (IFNγ, IL-4, or Foxp3 expression): failed to modulate

## tunicamycin
[1]; [4]
  IL-17 expression in T cells: little influence on IL-17 expression
[2]; [4]
  Th1 and Th2 differentiation: preferentially impaired Th1 and Th2 differentiation
